Like-named read-outs stand apart in the source and are kept apart here.
Experiments:
[1] = test system: pre-induced phospho-histone 2A (kinase activity of Bub1); experiment: H2A Abrogation-Assay (cell-based mechanistic assay, pre-treatment with Nocodazole); settings: Nocodazole 16 h, then test compound 1 h; read-out: Biological Assay 4:2: H2A Abrogation IC50
Text: Biological Assay 4.2: Abrogation-Assay
This assay measures the inhibition of histone 2A phosphorylation, which was induced by pre-treatment of the cells with Nocodazole, by a Bub1 kinase inhibitor.

[2] = biological target: T1, (recombinant) catalytic domain of human Bub1 (amino acids 704-1085) (Homo sapiens, UniProt O43683); experiment: Bub1 kinase assay (TR-FRET); assay type: biochemical
T1 construct: catalytic domain of human Bub1 (amino acids 704-1085); 6xHis (N); made in house; host or cells: Hi5 insect cells

[3] = test system: histone 2A phosphorylation (kinase activity of Bub1); experiment: H2A Formation-Assay (cell-based mechanistic assay, co-treatment with Nocodazole); settings: 16 h, read-out: Biological Assay 4.1: H2A Formation IC50
Procedure: Cell-Based Mechanistic Assay: Changes of Phosphorylation Status of Histone 2A by Inhibition of Kinase Activity of Bub1
This assay determines the suppression of histone 2A phosphorylation by a Bub1 kinase inhibitor during co-treatment with Nocodazole. 25000 cells (cells were ordered from ATCC) were seeded in 96well plate for 5 h at 37° C. Cells were treated with Nocodazole (1 μg/ml) and varying concentrations (between 3 nM and 10 μM) of test compounds for 16 h. Cells were fixed (20 min, Fixing solution R&D), washed three times with PBS and blocked with Odyssey blocking buffer before incubating with the primary antibody against phosphorylated H2A (5 μg/ml ABIN482721) overnight at 2-8° C. After washing, secondary IRDye-labeled antibody mix with cell stains was added for 1 h and washed again with PBS. Plates were scanned with LICor Odyssey Infrared Imager CLx at 800 nm for P-H2A and at 700 nm for cell stains Draq5/Sapphire. The quotient of 800 nm and 700 nm for Nocodazole only treated cells was set as 100% and the quotient of 800 nm and 700 nm of untreated cells was set as 0%. […] The IC50 values were determined by means of a 4 parameter fit.

[4] = test system: HeLa human cervical tumor cells; experiment: Proliferation assay (HeLa cell line); assay type: cell-based; settings: 96 h, 4 days incubation, crystal violet, read-out: Biological Assay 2: Proliferation assay (HeLa cell line) median IC50
Text: Human tumour cells were originally obtained from the American Type Culture Collection (ATCC), the Deutsche Sammlung von Mikroorganismen und Zellkulturen (DSMZ, German Collection of Microorganisms and Cell Cultures), or Epo GmbH Berlin.

[5] = test system: HeLa human cervical tumor cells; experiment: Proliferation Assay (HeLa + Paclitaxel); assay type: cell-based; settings: 3 nM paclitaxel, test substance 92 hours; read-out: Biological Assay 3: Proliferation Assay (HeLa + Paclitaxel) IC50
Text: Proliferation Assay (HeLa+Paclitaxel):

[6] = ATP 10 μM, 60 min reaction, pH 7.5, read-out: Biological Assay 1: Bub1 kinase assay median IC50

T1 sequence (O43683 704-1085): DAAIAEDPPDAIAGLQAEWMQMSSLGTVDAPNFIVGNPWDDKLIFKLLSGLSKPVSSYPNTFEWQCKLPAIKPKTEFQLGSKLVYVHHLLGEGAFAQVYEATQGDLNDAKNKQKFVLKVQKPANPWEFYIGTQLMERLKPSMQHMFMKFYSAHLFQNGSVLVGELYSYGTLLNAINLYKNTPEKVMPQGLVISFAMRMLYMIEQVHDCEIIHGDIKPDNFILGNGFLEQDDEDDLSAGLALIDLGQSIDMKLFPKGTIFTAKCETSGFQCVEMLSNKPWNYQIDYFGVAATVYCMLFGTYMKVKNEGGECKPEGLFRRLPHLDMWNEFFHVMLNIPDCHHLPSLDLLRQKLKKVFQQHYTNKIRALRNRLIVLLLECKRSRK

Work on CCOc1cc(F)c(Cn2nc(-c3ncc(OCCCO)c(Nc4ccncc4C)n3)c3ccccc32)c(F)c1 [Example 2-1-2, 3-({2-[1-(4-ethoxy-2,6-difluorobenzyl)-1H-indazol-3-yl]-4-[(3-methylpyridin-4-yl)amino]pyrimidin-5-yl}oxy)propan-1-ol] yielded an IC50 [1] of 0.017 µM, an IC50 [2, 6] of 0.01 µM and an IC50 [3] of 0.031 µM. It also gave an IC50 [4] of 3.7 µM.
In the case of CCOc1cc(F)c(Cn2nc(-c3ncc(OCCCO)c(Nc4ccncc4C4CC4)n3)c3ccccc32)c(F)c1 [Example 2-1-3, 3-({4-[(3-cyclopropylpyridin-4-yl)amino]-2-[1-(4-ethoxy-2,6-difluorobenzyl)-1H-indazol-3-yl]pyrimidin-5-yl}oxy)propan-1-ol], the IC50 [1] is reported as 0.00093 µM, the IC50 [2, 6] is reported as 0.011 µM and the IC50 [5] is reported as 0.054 µM. The IC50 [3] was 0.00097 µM and the IC50 [4] was 3.7 µM.
With CCOc1cc(F)c(Cn2nc(-c3ncc(OCCCO)c(Nc4ccnc(C)c4)n3)c3ccccc32)c(F)c1 [Example 2-1-4, 3-({2-[1-(4-ethoxy-2,6-difluorobenzyl)-1H-indazol-3-yl]-4-[(2-methylpyridin-4-yl)amino]pyrimidin-5-yl}oxy)propan-1-ol] the IC50 [1] was 0.08 µM, the IC50 [2, 6] was 0.012 µM and the IC50 [5] was 0.1 µM. It also gave an IC50 [3] of 0.0084 µM and an IC50 [4] of 3 µM.
In the case of CCOc1cc(F)c(Cn2nc(-c3ncc(OCCCO)c(Nc4ccnc(C)n4)n3)c3ccccc32)c(F)c1 [Example 2-1-7, 3-({2-[1-(4-ethoxy-2,6-difluorobenzyl)-1H-indazol-3-yl]-4-[(2-methylpyrimidin-4-yl)amino]pyrimidin-5-yl}oxy)propan-1-ol], the IC50 [1] is reported as 0.048 µM, the IC50 [2, 6] is reported as 0.007 µM and the IC50 [5] is reported as 0.19 µM. The IC50 [3] was 0.087 µM and the IC50 [4] was over 10 µM.
In the case of CCOc1cc(F)c(Cn2nc(-c3ncc(OCCCO)c(Nc4ccncn4)n3)c3ccccc32)c(F)c1 [Example 2-1-9, 3-({2-[1-(4-ethoxy-2,6-difluorobenzyl)-1H-indazol-3-yl]-4-(pyrimidin-4-ylamino)pyrimidin-5-yl}oxy)propan-1-ol], the IC50 [1] is reported as 0.033 µM, the IC50 [2, 6] is reported as 0.0038 µM and the IC50 [5] is reported as 0.33 µM. It also gave an IC50 [3] of 0.171 µM and an IC50 [4] of over 10 µM.
CCOc1cc(F)c(Cn2nc(-c3ncc(OCCCO)c(Nc4ccnc(F)c4)n3)c3ccccc32)c(F)c1 [Example 2-1-10, 3-({2-[1-(4-ethoxy-2,6-difluorobenzyl)-1H-indazol-3-yl]-4-[(2-fluoropyridin-4-yl)amino]pyrimidin-5-yl}oxy)propan-1-ol] gave an IC50 [1] of 0.023 µM, an IC50 [2, 6] of 0.015 µM and an IC50 [5] of 1.4 µM. For the same molecule, the IC50 [3] was 0.044 µM and the IC50 [4] was 9 µM.
Molecule CCOc1cc(F)c(Cn2nc(-c3ncc(OCCCO)c(Nc4cc(C)ncc4C)n3)c3ccccc32)c(F)c1 [Example 2-1-11, 3-{[4-[(2,5-dimethylpyridin-4-yl)amino]-2-[1-(4-ethoxy-2,6-difluorobenzyl)-1H-indazol-3-yl]pyrimidin-5-yl}oxy)propan-1-ol] has an IC50 [1] of 0.017 µM, an IC50 [2, 6] of 0.021 µM and an IC50 [5] of 0.26 µM. The IC50 [3] was 0.026 µM and the IC50 [4] was 3.2 µM.
CCOc1cc(F)c(Cn2nc(-c3ncc(OCCCO)c(Nc4cc(NC(C)=O)ncc4C)n3)c3ccccc32)c(F)c1 [Example 2-1-12, N-[4-({2-[1-(4-ethoxy-2,6-difluorobenzyl)-1H-indazol-3-yl]-5-(3-hydroxypropoxy)pyrimidin-4-yl}amino)-5-methylpyridin-2-yl]acetamide] was tested, and the IC50 [2, 6] was 0.035 µM.
Molecule OCCCOc1cnc(-c2nn(Cc3c(F)cc(OCC4CC4)cc3F)c3ccccc23)nc1Nc1ccncc1Cl [Example 2-1-13, 3-[(4-[(3-chloropyridin-4-yl)amino]-2-{1-[4-(cyclopropylmethoxy)-2,6-difluorobenzyl]-1H-indazol-3-yl}pyrimidin-5-yl)oxy]propan-1-ol] has an IC50 [1] of 0.064 µM, an IC50 [2, 6] of 0.011 µM and an IC50 [5] of 0.18 µM. For the same molecule, the IC50 [3] was 0.36 µM and the IC50 [4] was 3.9 µM.
CCOc1cc(F)c(Cn2nc(-c3ncc(OCCCO)c(Nc4cc(C)nc(C)n4)n3)c3ccccc32)c(F)c1 [Example 2-1-14, 3-({4-[(2,6-Dimethylpyrimidin-4-yl)amino]-2-[1-(4-ethoxy-2,6-difluorobenzyl)-1H-indazol-3-yl]pyrimidin-5-yl}oxy)propan-1-ol] gave an IC50 [1] of 0.00092 µM, an IC50 [2, 6] of over 20 µM and an IC50 [5] of 0.039 µM. The IC50 [3] was 0.0087 µM and the IC50 [4] was over 10 µM.
Molecule CCOc1cc(F)c(Cn2nc(-c3ncc(OCCCO)c(Nc4ccnc(NC(=O)C5CC5)c4)n3)c3ccccc32)c(F)c1 [Example 2-1-15, N-[4-({2-[1-(4-Ethoxy-2,6-difluorobenzyl)-1H-indazol-3-yl]-5-(3-hydroxypropoxy)pyrimidin-4-yl}amino)pyridin-2-yl]cyclopropancarboxamide] has an IC50 [1] of 0.0046 µM, an IC50 [2, 6] of 0.008 µM and an IC50 [5] of 0.14 µM. The IC50 [3] was 0.037 µM and the IC50 [4] was 3 µM.
Work on CCOc1cc(F)c(Cn2nc(-c3ncc(OCCCO)c(Nc4cc(C)ncc4F)n3)c3ccccc32)c(F)c1 [Example 2-1-16, 3-({2-[1-(4-Ethoxy-2,6-difluorobenzyl)-1H-indazol-3-yl]-4-[(5-fluor-2-methylpyridin-4-yl)amino]pyrimidin-5-yl}oxy)propan-1-ol] yielded an IC50 [2, 6] of 0.016 µM.
CCOc1cc(F)c(Cn2nc(-c3ncc(OCCCO)c(Nc4ccnc(NC(C)=O)c4C)n3)c3ccccc32)c(F)c1 [Example 2-1-17, N-[4-({2-[1-(4-ethoxy-2,6-difluorobenzyl)-1H-indazol-3-yl]-5-(3-hydroxypropoxy)pyrimidin-4-yl}amino)-3-methylpyridin-2-yl]acetamide] showed an IC50 [1] of 0.0039 µM, an IC50 [2, 6] of 0.0092 µM and an IC50 [5] of 0.2 µM. For the same molecule, the IC50 [3] was 0.0017 µM and the IC50 [4] was over 10 µM.
With Cc1nccc(Nc2nc(-c3nn(Cc4c(F)cc(OCC(F)(F)F)cc4F)c4ccccc34)ncc2OCCCO)n1 [Example 2-1-19, 3-[(2-{1-[2,6-difluoro-4-(2,2,2-trifluoroethoxy)benzyl]-1H-indazol-3-yl}-4-[(2-methylpyrimidin-4-yl)amino]pyrimidin-5-yl)oxy]propan-1-ol] the IC50 [1] was 0.0025 µM, the IC50 [2, 6] was 0.021 µM and the IC50 [5] was 0.12 µM. The IC50 [3] was 0.0035 µM and the IC50 [4] was over 10 µM.
OCCCOc1cnc(-c2nn(Cc3c(F)cc(OCC(F)(F)F)cc3F)c3ccccc23)nc1Nc1ccncc1Cl [Example 2-1-20, 3-[(4-[(3-chloropyridin-4-yl)amino]-2-{1-[2,6-difluoro-4-(2,2,2-trifluoroethoxy)benzyl]-1H-indazol-3-yl}pyrimidin-5-yl)oxy]propan-1-ol] gave an IC50 [1] of over 1 µM, an IC50 [2, 6] of 0.013 µM and an IC50 [5] of 0.098 µM. It also gave an IC50 [3] of 0.11 µM and an IC50 [4] of 6.2 µM.
Work on CCOc1cc(F)c(Cn2nc(-c3ncc(OCCCO)c(Nc4ccncc4OCC(F)(F)F)n3)c3ccccc32)c(F)c1 [Example 2-1-22, 3-[(2-[1-(4-ethoxy-2,6-difluorobenzyl)-1H-indazol-3-yl]-4-{[3-(2,2,2-trifluoroethoxy)pyridin-4-yl]amino}pyrimidin-5-yl)oxy]propan-1-ol] yielded an IC50 [2, 6] of 0.0057 µM, an IC50 [5] of 0.18 µM and an IC50 [4] of 1.39 µM.
With Cc1cc(Nc2nc(-c3nn(Cc4c(F)cc(OCC5CC5)cc4F)c4ccccc34)ncc2OCCCO)c(C)cn1 [Example 2-1-23, 3-[(2-{1-[4-(cyclopropylmethoxy)-2,6-difluorobenzyl]-1H-indazol-3-yl}-4-[(2,5-dimethylpyridin-4-yl)amino]pyrimidin-5-yl)oxy]propan-1-ol] the IC50 [2, 6] was 0.015 µM, the IC50 [5] was 0.3 µM and the IC50 [4] was 2.32 µM.
For CC(=O)Nc1cc(Nc2nc(-c3nn(Cc4c(F)cc(OCC(F)(F)F)cc4F)c4ccccc34)ncc2OCCCO)ccn1 [Example 2-1-25, N-(4-{[2-{1-[2,6-difluoro-4-(2,2,2-trifluoroethoxy)benzyl]-1H-indazol-3-yl}-5-(3-hydroxypropoxy)pyrimidin-4-yl]amino}pyridin-2-yl)acetamide], the IC50 [2, 6] was 0.019 µM, the IC50 [5] was 0.2 µM and the IC50 [4] was 1.36 µM.
COCCOc1cc(F)c(Cn2nc(-c3ncc(OCCCO)c(Nc4ccncn4)n3)c3ccccc32)c(F)c1 [Example 2-1-27, 3{[2-{1-[2,6-difluoro-4-(2-methoxyethoxy)benzyl]-1H-indazol-3-yl}-4-(pyrimidin-4-ylamino)pyrimidin-5-yl]oxy}propan-1-ol] was tested, and the IC50 [2, 6] was 0.004 µM.
With CCOc1cc(F)c(Cn2nc(-c3ncc(OCCOCCNC(=S)Nc4ccc(-c5c6ccc(=O)cc-6oc6cc(O)ccc56)c(C(=O)O)c4)c(Nc4ccncc4)n3)c3ccccc32)c(F)c1 [Example 5-5-1, 5-[((2-[2-((2-[1-(4-ethoxy-2,6-difluorobenzyl)-1H-indazol-3-yl]-4-(pyridin-4-ylamino)pyrimidin-5-yl)oxy)ethoxy]ethyl)carbamothioyl)amino]-2-(6-hydroxy-3-oxo-3H-xanthen-9-yl)benzoic acid, reference compound] the IC50 [2, 6] was 0.021 µM and the IC50 ([2]; probe of the competition assay, read-out: inhibits the kinase activity of Bub1, IC50) was 0.0208 µM.
CCOc1cc(F)c(Cn2nc(-c3ncc(OCCO)c(Nc4ccncc4)n3)c3ccccc32)c(F)c1 [Example 5-6-1, 2-({2-[1-(4-ethoxy-2,6-difluorobenzyl)-1H-indazol-3-yl]-4-(pyridin-4-ylamino)pyrimidin-5-yl}oxy)ethanol, reference compound] showed an IC50 [5] of 1.4 µM and an IC50 [3] of 1.1 µM.

From US20170305882A1, “BENZYL SUBSTITUTED INDAZOLES AS BUB1 KINASE INHIBITORS” (Bayer Pharma Aktiengesellschaft, priority 2014, published 2017)
